Several values for one entry are separate records, joined by “and”; a condition that tells them apart may be missing. Equal values may be shown once.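 Grown in 96-well plates, cells were treated for 48 hours with each compound at five concentrations. Insufficient inhibition: endpoint recorded as highest concentration tested. At the GI50, growth is halved. TGI: total growth inhibition.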
Legend:
Test in all cases: NCI-60 cell line screen, 48 h
[1] = test system: NCI-H23 lung
[2] = test system: IGROV1 ovarian
[3] = test system: A498 renal
[4] = test system: SK-MEL-2 melanoma
[5] = test system: UACC-62 melanoma
[6] = test system: SF-268 CNS
[7] = test system: OVCAR-4 ovarian
[8] = test system: CAKI-1 renal
[9] = test system: ACHN renal
[10] = test system: HCT-116 colon

COC(=O)C1=C(O)c2cc(OC)c(OC)c(OC)c2C(c2ccc3c(c2)OCO3)[C@@H]1C(=O)OC (stereo not given in full)
TGI [1]: > 100 µM
TGI [2]: > 100 µM
TGI [3]: 19.2 µM
TGI [4]: > 100 µM
TGI [5]: > 100 µM
TGI [6]: > 100 µM
TGI [7]: > 100 µM
TGI [8]: > 100 µM
TGI [9]: > 100 µM
TGI [10]: > 100 µM

COc1ccc(CN2c3ccccc3Sc3ccccc32)cc1O
GI50 [1]: 0.364 µM
TGI [1]: 13.2 µM
GI50 [2]: 1.93 µM
TGI [2]: 21.3 µM
GI50 [3]: 2.71 µM
TGI [3]: 19 µM
GI50 [4]: 0.333 µM
TGI [4]: 19.9 µM
GI50 [5]: 0.682 µM
TGI [5]: 19.4 µM
GI50 [6]: 0.966 µM
TGI [6]: 20.5 µM
GI50 [7]: 0.726 µM
TGI [7]: 19.3 µM
GI50 [8]: 0.472 µM
TGI [8]: 17.7 µM
GI50 [9]: 1.56 µM
TGI [9]: 21.8 µM
GI50 [10]: 0.386 µM
TGI [10]: 13.1 µM

COc1ccc2c(c1)[n+](=O)c(/C=C/C(=O)c1cc(OC)c(OC)c(OC)c1)c(C)n2[O-]
GI50 [1]: 13.7 µM
TGI [1]: 34 µM
GI50 [2]: 18.2 µM
TGI [2]: > 100 µM
GI50 [3]: 20.5 µM
TGI [3]: 54.2 µM
GI50 [4]: 11.5 µM
TGI [4]: 28.3 µM
GI50 [5]: 2.9 µM
TGI [5]: 14.1 µM
GI50 [6]: 6.11 µM
TGI [6]: 45.6 µM
GI50 [7]: 9.35 µM
TGI [7]: > 100 µM
GI50 [8]: 5.31 µM
TGI [8]: > 100 µM
GI50 [9]: 5.66 µM
TGI [9]: 23.6 µM
GI50 [10]: 3.23 µM
TGI [10]: 14.2 µM

CCOC1=C/C(=N\Nc2ccc([N+](=O)[O-])cc2)CCC1
TGI [1]: 94.1 µM
TGI [2]: 40.7 µM
TGI [3]: > 100 µM
TGI [4]: 58.1 µM
TGI [5]: 67.4 µM
TGI [6]: 44.9 µM
TGI [7]: > 100 µM
TGI [8]: > 100 µM
TGI [9]: 34.8 µM
TGI [10]: > 100 µM

O=C(CC1(O)CCCCC1)OC1CCCC1
TGI [1]: > 100 µM
TGI [2]: > 100 µM
TGI [3]: > 100 µM
TGI [4]: > 100 µM
TGI [5]: > 100 µM
TGI [6]: > 100 µM
TGI [7]: > 100 µM
TGI [8]: > 100 µM
TGI [9]: > 100 µM
TGI [10]: > 100 µM

Cc1nc(Nc2ccc(Cl)cc2)sc1C(=O)Nc1cccc2c(=O)[nH][nH]c(=O)c12
TGI [1]: 40.5 µM
TGI [2]: 83.5 µM
TGI [3]: 59.4 µM
TGI [4]: > 100 µM
TGI [5]: 16.4 µM
TGI [6]: > 100 µM
TGI [7]: > 100 µM
TGI [8]: > 100 µM
TGI [9]: > 100 µM
TGI [10]: > 100 µM

CCS(=O)(=O)c1cccc(-c2cc(C(=O)NC3CCN(C)CC3)c(C)c3[nH]c4ncc(C)cc4c23)c1
GI50 [1]: 0.483 µM and 0.322 µM
TGI [1]: 5.23 µM and 3.75 µM
GI50 [2]: 0.179 µM and 0.111 µM
TGI [2]: 1.76 µM and 2.55 µM
GI50 [3]: 0.453 µM and 0.124 µM
TGI [3]: 1.65 µM and 0.79 µM
GI50 [4]: 0.694 µM and 0.673 µM
TGI [4]: 3.07 µM and 3.38 µM
GI50 [5]: 0.452 µM and 0.372 µM
TGI [5]: 2.13 µM and 2.09 µM
GI50 [6]: 0.332 µM and 0.245 µM
TGI [6]: 2.19 µM and 1.1 µM
GI50 [7]: 1.04 µM and 0.249 µM
TGI [7]: > 7.71 µM and 4.39 µM
GI50 [8]: 1.35 µM and 6.41 µM
TGI [8]: > 6.29 µM and 36.4 µM
GI50 [9]: 9.87 µM and 2.64 µM
TGI [9]: > 10 µM and 10.6 µM
GI50 [10]: 0.128 µM and 0.0788 µM
TGI [10]: 2.66 µM and 5.4 µM

COc1ccc2c(CN3CCCC[C@H]3O)cc3cc4c(cc3c2c1)OCO4
GI50 [1]: 0.445 µM
TGI [1]: 1.82 µM
GI50 [2]: 0.368 µM
TGI [2]: 9.3 µM
GI50 [3]: 0.542 µM
TGI [3]: 1.47 µM
GI50 [4]: 0.291 µM
TGI [4]: 0.889 µM
GI50 [5]: 0.247 µM
TGI [5]: 0.712 µM
GI50 [6]: 0.417 µM
TGI [6]: 5.74 µM
GI50 [7]: 0.393 µM
TGI [7]: 2.99 µM
GI50 [8]: 0.518 µM
TGI [8]: 5.66 µM
GI50 [9]: 0.222 µM
TGI [9]: 2.36 µM
GI50 [10]: 0.223 µM
TGI [10]: 10.7 µM

O=C(OCC1=CC(=O)c2ccccc2C1=O)c1ccccc1
GI50 [1]: 6.28 µM
TGI [1]: 24.8 µM
GI50 [2]: 12.5 µM
TGI [2]: 25.6 µM
GI50 [3]: 18.6 µM
TGI [3]: 36.8 µM
GI50 [4]: 12.3 µM
TGI [4]: 35.9 µM
GI50 [5]: 3.27 µM
TGI [5]: 9.02 µM
GI50 [6]: 14.1 µM
TGI [6]: 29.6 µM
GI50 [7]: 13.2 µM
TGI [7]: 28.4 µM
GI50 [8]: 10.4 µM
TGI [8]: 22.8 µM
GI50 [9]: 15 µM
TGI [9]: 28.4 µM
GI50 [10]: 15.5 µM
TGI [10]: 29.7 µM

CCOC(=O)c1sc(NC(=O)COc2ccc(/C=C3\CCc4cc(OC)ccc4C3=O)cc2)nc1C
GI50 [1]: 13.7 µM
TGI [1]: 32.4 µM
GI50 [2]: 1.63 µM
TGI [2]: 6.22 µM
GI50 [3]: 13.2 µM
TGI [3]: 30.1 µM
GI50 [4]: 5.61 µM
TGI [4]: 21.6 µM
GI50 [5]: 11.3 µM
TGI [5]: 23.4 µM
GI50 [6]: 11.4 µM
TGI [6]: 26.5 µM
GI50 [7]: 11.8 µM
TGI [7]: 27.7 µM
GI50 [8]: 11.1 µM
TGI [8]: 31.6 µM
GI50 [9]: 13.8 µM
TGI [9]: 32.5 µM
GI50 [10]: 12.9 µM
TGI [10]: 25.6 µM

BrCc1ccc2ccc3ccc(CBr)nc3c2n1
TGI [1]: 19.4 µM
TGI [2]: 10.8 µM
TGI [3]: 8.38 µM
TGI [4]: 15 µM
TGI [5]: > 37.8 µM
TGI [6]: 9.04 µM
TGI [7]: 12.3 µM
TGI [8]: 12.7 µM
TGI [9]: 5.58 µM
TGI [10]: 6.7 µM

Cc1nc(C(=O)OCc2ccccc2)cc(OCc2ccccc2)c1C
GI50 [1]: 15.3 µM
TGI [1]: 36.8 µM
GI50 [2]: 21.4 µM
TGI [2]: 47.7 µM
GI50 [3]: 27.9 µM
TGI [3]: > 85.6 µM
GI50 [4]: 26.4 µM
TGI [4]: > 84.5 µM
GI50 [5]: 11 µM
TGI [5]: 24.8 µM
GI50 [6]: 17.5 µM
TGI [6]: 41.6 µM
GI50 [7]: 11.8 µM
TGI [7]: 33.6 µM
GI50 [8]: 32.6 µM
TGI [8]: > 100 µM
GI50 [9]: 20.9 µM
TGI [9]: 60.2 µM
GI50 [10]: 13.6 µM
TGI [10]: 32.6 µM

O=C1C=C(NCCc2ccccc2)c2ccccc2C1=O
TGI [1]: 5.67 µM
TGI [2]: 21.3 µM
TGI [3]: 10.1 µM
TGI [4]: 5.18 µM
TGI [5]: 3.34 µM
TGI [6]: 23.1 µM
TGI [7]: 13.4 µM
TGI [8]: 21.8 µM
TGI [9]: 12.2 µM
TGI [10]: 18 µM

CN(C)CCN=c1nc2c(c(N)n1-c1ccccc1)c(=S)n(-c1ccccc1)c(=S)n2-c1ccccc1
GI50 [1]: 13.2 µM
TGI [1]: 31.9 µM
GI50 [2]: 8.09 µM
TGI [2]: 23 µM
GI50 [3]: 1.24 µM
TGI [3]: 4.08 µM
GI50 [4]: 1.73 µM
TGI [4]: 3.4 µM
GI50 [5]: 1.78 µM
TGI [5]: 3.41 µM
GI50 [6]: 3.34 µM
TGI [6]: 15.1 µM
GI50 [7]: 2.98 µM
TGI [7]: 9.01 µM
GI50 [8]: 2.16 µM
TGI [8]: 14.1 µM
GI50 [9]: 2.89 µM
TGI [9]: 9.71 µM
GI50 [10]: 2.24 µM
TGI [10]: 9.38 µM

C=C1C(=O)O[C@@H]2C[C@@H](C)[C@@H]3C=CC(=O)[C@@]3(C)[C@@H](OC(=O)CCCC(=O)O[C@H]3[C@@H]4C(=C)C(=O)O[C@@H]4C[C@@H](C)[C@@H]4C=CC(=O)[C@]43C)[C@H]12
TGI [1]: 0.275 µM
TGI [2]: 0.313 µM
TGI [3]: 0.546 µM
TGI [4]: 0.34 µM
TGI [5]: 0.103 µM
TGI [6]: 0.23 µM
TGI [7]: 0.262 µM
TGI [8]: 0.187 µM
TGI [9]: 0.11 µM
TGI [10]: 0.03 µM
